{"source": "DBAASP", "assay_in_all_cases": "≥ marks a high value that may be exact or a test limit, other limits are often not marked, values filed in µg/mL are converted to µM", "key": {"Micrococcus luteus A270": {"test_system": "Micrococcus luteus A270"}, "Escherichia coli": {"test_system": "Escherichia coli"}, "Listeria innocua": {"test_system": "Listeria innocua"}, "[1]": {"test_system": "Staphylococcus aureus ATCC 25923"}, "[2]": {"test_system": "Staphylococcus epidermidis ATCC 12228"}, "[3]": {"test_system": "Escherichia coli ATCC 25922"}, "[4]": {"test_system": "Bacillus subtilis ATCC 23857"}, "[5]": {"test_system": "Staphylococcus aureus ATCC BAA-1556"}, "[6]": {"test_system": "Candida albicans ATCC 2002"}, "Bacillus subtilis": {"test_system": "Bacillus subtilis"}, "Pseudomonas aeruginosa": {"test_system": "Pseudomonas aeruginosa"}, "[7]": {"test_system": "Candida albicans F7-39/IDE99"}, "Bacillus subtilis 168": {"test_system": "Bacillus subtilis 168"}, "Staphylococcus aureus": {"test_system": "Staphylococcus aureus"}, "Escherichia coli B": {"test_system": "Escherichia coli B"}, "[8]": {"test_system": "Pseudomonas aeruginosa ATCC 9027"}, "[9]": {"test_system": "Klebsiella pneumoniae ATCC 700603"}, "[10]": {"test_system": "Candida albicans ATCC 10231"}}}
{"smiles": "CC(C)C[C@H](NC(=O)[C@H](CO)NC(=O)[C@H](C)NC(=O)[C@H](Cc1cnc[nH]1)NC(=O)[C@@H](NC(=O)[C@H](C)NC(=O)[C@@H]1CCCN1C(=O)[C@@H](NC(=O)[C@H](Cc1ccccc1)NC(=O)[C@H](CC(=O)O)NC(=O)[C@H](CO)NC(=O)[C@@H]1CCCN1C(=O)[C@H](CC(C)C)NC(=O)[C@H](Cc1cnc[nH]1)NC(=O)[C@H](CO)NC(=O)[C@H](C)NC(=O)[C@H](CC(C)C)NC(=O)[C@@H](NC(=O)[C@@H](N)C(C)C)[C@@H](C)O)[C@@H](C)O)C(C)C)C(=O)N[C@@H](CC(=O)O)C(=O)N[C@@H](CCCCN)C(=O)N[C@@H](Cc1ccccc1)C(=O)O", "note": "[VTLASHLPSDFTPAVHASLDKF]", "values": [{"measurement": "MIC", "setting": "Micrococcus luteus A270", "result": "≥ 53", "unit": "µM"}, {"measurement": "MIC", "setting": "Escherichia coli", "result": 26, "unit": "µM"}, {"measurement": "MIC", "setting": "Listeria innocua", "result": "≥ 53", "unit": "µM"}]}
{"smiles": "CC[C@H](C)[C@H](N)C(=O)N[C@@H](CC(C)C)C(=O)NCC(=O)N[C@H](C(=O)N[C@H](C(=O)N[C@@H](CC(C)C)C(=O)NCC(=O)N[C@@H](CC(C)C)C(=O)N[C@@H](CC(C)C)C(=O)N[C@@H](CCCCN)C(=O)N[C@H](C(=O)N[C@@H](CC(C)C)C(N)=O)[C@@H](C)O)[C@@H](C)CC)[C@@H](C)O", "note": "[ILGTILGLLKTL]", "values": [{"measurement": "MIC", "setting": "[1]", "result": 8, "unit": "µM"}, {"measurement": "MIC", "setting": "[2]", "result": 4, "unit": "µM"}, {"measurement": "MIC", "setting": "[3]", "result": 64, "unit": "µM"}, {"measurement": "MIC", "setting": "[4]", "result": 4, "unit": "µM"}]}
{"smiles": "CC(C)C[C@H](NC(=O)[C@H](CC(C)C)NC(=O)[C@H](Cc1c[nH]c2ccccc12)NC(=O)[C@H](CCCCN)NC(=O)[C@H](CC(C)C)NC(=O)[C@H](CC(C)C)NC(=O)[C@H](CCCCN)NC(=O)[C@@H](N)CCCCN)C(=O)N[C@@H](CCCCN)C(N)=O", "note": "[KKLLKWLLK]", "values": [{"measurement": "MIC", "setting": "[5]", "result": "≥ 100", "unit": "µM"}]}
{"smiles": "CC(C)C[C@H](NC(=O)[C@H](CC(C)C)NC(=O)[C@H](CC(C)C)NC(=O)[C@H](CC(C)C)NC(=O)[C@H](CCCCN)NC(=O)[C@H](CC(C)C)NC(=O)[C@H](CC(C)C)NC(=O)[C@H](CC(C)C)NC(=O)[C@@H](N)CCCCN)C(N)=O", "note": "[KLLLKLLLL]", "values": [{"measurement": "MIC", "setting": "[5]", "result": "≥ 100", "unit": "µM"}]}
{"smiles": "CC[C@H](C)[C@H](NC(=O)CN)C(=O)N[C@H](C(=O)N[C@@H](C)C(=O)NCC(=O)N[C@H](C(=O)N[C@H](C(=O)N[C@H](C(=O)N[C@@H](CCCCN)C(=O)N[C@H](C(=O)N[C@@H](C)C(=O)N[C@@H](CCCCN)C(N)=O)[C@@H](C)CC)[C@@H](C)CC)[C@@H](C)CC)[C@@H](C)CC)[C@@H](C)CC", "note": "[GIIAGIIIKIAK]", "values": [{"measurement": "MIC", "setting": "[3]", "result": "> 128", "unit": "µM"}, {"measurement": "MIC", "setting": "[4]", "result": "≥ 128", "unit": "µM"}]}
{"smiles": "CC(C)C[C@H](NC(=O)[C@H](CCCCN)NC(=O)[C@H](CCCCN)NC(=O)[C@H](CC(C)C)NC(=O)[C@H](CC(C)C)NC(=O)[C@H](CC(C)C)NC(=O)[C@H](CC(C)C)NC(=O)[C@H](CC(C)C)NC(=O)[C@@H](N)CC(C)C)C(N)=O", "note": "[LLLLLLKKL]", "values": [{"measurement": "MIC", "setting": "[5]", "result": "≥ 100", "unit": "µM"}]}
{"smiles": "CC[C@H](C)[C@H](NC(=O)[C@H](C)NC(=O)[C@H](CCCN=C(N)N)NC(=O)[C@H](Cc1ccc(O)cc1)NC(=O)[C@H](CC(C)C)NC(=O)[C@H](CC(N)=O)NC(=O)[C@H](Cc1ccc(O)cc1)NC(=O)CNC(=O)[C@H](C)NC(=O)[C@@H](NC(=O)[C@@H](NC(=O)[C@@H](NC(=O)[C@H](CCCN=C(N)N)NC(=O)[C@@H](NC(=O)[C@@H](NC(=O)[C@@H](NC(=O)[C@@H]1CCCN1C(=O)[C@@H](N)Cc1c[nH]c2ccccc12)C(C)C)C(C)C)[C@@H](C)CC)[C@@H](C)O)C(C)C)C(C)C)C(=O)N[C@@H](CCCCN)C(=O)N[C@@H](CCCCN)C(=O)N[C@@H](CCCCN)C(=O)O", "note": "[WPVVIRTVVAGYNLYRAIKKK]", "values": [{"measurement": "MIC", "setting": "[1]", "result": 5.68, "unit": "µM"}, {"measurement": "MIC", "setting": "[6]", "result": 0.947, "unit": "µM"}, {"measurement": "MIC", "setting": "[3]", "result": 15.2, "unit": "µM"}, {"measurement": "MIC", "setting": "Bacillus subtilis", "result": 15.2, "unit": "µM"}]}
{"smiles": "CC(C)C[C@H](NC(=O)[C@H](CC(C)C)NC(=O)[C@H](CCCCN)NC(=O)[C@H](CC(C)C)NC(=O)[C@H](CC(C)C)NC(=O)[C@H](CC(C)C)NC(=O)[C@H](CC(C)C)NC(=O)[C@H](CC(C)C)NC(=O)[C@@H](N)CC(C)C)C(N)=O", "note": "[LLLLLLKLL]", "values": [{"measurement": "MIC", "setting": "[5]", "result": "≥ 100", "unit": "µM"}]}
{"smiles": "CC[C@H](C)[C@H](N)C(=O)N[C@@H](CC(C)C)C(=O)NCC(=O)N[C@H](C(=O)N[C@H](C(=O)N[C@@H](CC(C)C)C(=O)NCC(=O)N[C@@H](CC(C)C)C(=O)N[C@@H](CC(C)C)C(=O)N[C@@H](CCCCN)C(=O)N[C@@H](CC(N)=O)C(=O)N[C@@H](CC(C)C)C(N)=O)[C@@H](C)CC)[C@@H](C)O", "note": "[ILGTILGLLKNL]", "values": [{"measurement": "MIC", "setting": "[1]", "result": 8, "unit": "µM"}, {"measurement": "MIC", "setting": "[2]", "result": 4, "unit": "µM"}, {"measurement": "MIC", "setting": "[3]", "result": 32, "unit": "µM"}, {"measurement": "MIC", "setting": "[4]", "result": 4, "unit": "µM"}]}
{"smiles": "CC(C)C[C@H](NC(=O)[C@H](Cc1c[nH]c2ccccc12)NC(=O)[C@H](CCCN=C(N)N)NC(=O)[C@H](CC(C)C)NC(=O)[C@H](Cc1c[nH]c2ccccc12)NC(=O)[C@H](Cc1c[nH]c2ccccc12)NC(=O)[C@H](CC(C)C)NC(=O)[C@H](Cc1c[nH]c2ccccc12)NC(=O)[C@@H](N)CC(C)C)C(N)=O", "note": "[LWLWWLRWL]", "values": [{"measurement": "MIC", "setting": "[5]", "result": 3.12, "unit": "µM"}]}
{"smiles": "CC[C@H](C)[C@H](NC(=O)[C@H](CCCCN)NC(=O)[C@H](CCCCN)NC(=O)[C@H](Cc1c[nH]c2ccccc12)NC(=O)[C@H](CC(N)=O)NC(=O)[C@@H](N)C(C)C)C(=O)N[C@@H](CC(C)C)C(=O)NCC(=O)N[C@@H](CCCCN)C(=O)N[C@H](C(=O)N[C@H](C(=O)N[C@@H](CCCCN)C(=O)N[C@H](C(=O)N[C@@H](C)C(=O)N[C@@H](CCCCN)C(N)=O)C(C)C)[C@@H](C)CC)[C@@H](C)CC", "note": "[VNWKKILGKIIKVAK]", "values": [{"measurement": "MIC", "setting": "Pseudomonas aeruginosa", "result": 14.4, "unit": "µM"}, {"measurement": "MIC", "setting": "[7]", "result": 10, "unit": "µM"}, {"measurement": "MIC", "setting": "Bacillus subtilis 168", "result": 0.7, "unit": "µM"}, {"measurement": "MIC", "setting": "Staphylococcus aureus", "result": 9, "unit": "µM"}, {"measurement": "MIC", "setting": "Escherichia coli B", "result": 1.4, "unit": "µM"}]}
{"smiles": "CC(C)C[C@H](NC(=O)[C@H](Cc1c[nH]c2ccccc12)NC(=O)[C@H](CCCN=C(N)N)NC(=O)[C@H](CC(C)C)NC(=O)[C@H](Cc1c[nH]c2ccccc12)NC(=O)[C@H](Cc1c[nH]c2ccccc12)NC(=O)[C@H](CC(C)C)NC(=O)[C@@H](N)Cc1c[nH]c2ccccc12)C(N)=O", "note": "[WLWWLRWL]", "values": [{"measurement": "MIC", "setting": "[5]", "result": 6.25, "unit": "µM"}]}
{"smiles": "CC(C)C[C@H](NC(=O)[C@H](Cc1c[nH]c2ccccc12)NC(=O)[C@H](CCCN=C(N)N)NC(=O)[C@H](CC(C)C)NC(=O)[C@H](Cc1c[nH]c2ccccc12)NC(=O)[C@H](Cc1c[nH]c2ccccc12)NC(=O)[C@@H](N)CC(C)C)C(N)=O", "note": "[LWWLRWL]", "values": [{"measurement": "MIC", "setting": "[5]", "result": 12.5, "unit": "µM"}]}
{"smiles": "CC[C@H](C)[C@H](NC(=O)[C@H](Cc1cnc[nH]1)NC(=O)[C@H](CCCCN)NC(=O)[C@H](CC(C)C)NC(=O)[C@H](CC(C)C)NC(=O)[C@@H](NC(=O)[C@H](CCSC)NC(=O)[C@H](Cc1c[nH]c2ccccc12)NC(=O)[C@H](CCCCN)NC(=O)CN)[C@@H](C)O)C(=O)N[C@@H](CC(C)C)C(=O)N[C@@H](CCCCN)C(N)=O", "note": "[GKWMTLLKHILK]", "values": [{"measurement": "MIC", "setting": "Pseudomonas aeruginosa", "result": 38.3, "unit": "µM"}, {"measurement": "MIC", "setting": "[7]", "result": 7, "unit": "µM"}, {"measurement": "MIC", "setting": "Bacillus subtilis 168", "result": 1.3, "unit": "µM"}, {"measurement": "MIC", "setting": "Staphylococcus aureus", "result": 5.3, "unit": "µM"}, {"measurement": "MIC", "setting": "Escherichia coli B", "result": 2.7, "unit": "µM"}]}
{"smiles": "CC[C@H](C)[C@H](NC(=O)[C@H](CCCCN)NC(=O)[C@H](CCCCN)NC(=O)[C@H](C)NC(=O)[C@@H](NC(=O)[C@H](C)NC(=O)[C@H](CC(C)C)NC(=O)[C@H](CC(C)C)NC(=O)[C@H](C)NC(=O)[C@H](CCCCN)NC(=O)[C@H](CC(C)C)NC(=O)[C@H](CC(N)=O)NC(=O)[C@@H](N)CC(C)C)C(C)C)C(N)=O", "note": "[LNLKALLAVAKKI]", "values": [{"measurement": "MIC", "setting": "[1]", "result": 64, "unit": "µM"}, {"measurement": "MIC", "setting": "[8]", "result": 32, "unit": "µM"}, {"measurement": "MIC", "setting": "[3]", "result": 16, "unit": "µM"}, {"measurement": "MIC", "setting": "[4]", "result": 16, "unit": "µM"}, {"measurement": "MIC", "setting": "[9]", "result": 64, "unit": "µM"}]}
{"smiles": "N=C(N)NCCC[C@H](NC(=O)[C@H](CCCNC(=N)N)NC(=O)[C@H](Cc1ccccc1)NC(=O)[C@H](Cc1ccccc1)NC(=O)[C@H](CCCNC(=N)N)NC(=O)[C@H](CCCNC(=N)N)NC(=O)[C@H](Cc1ccccc1)NC(=O)[C@H](Cc1ccccc1)NC(=O)[C@H](CCCNC(=N)N)NC(=O)[C@H](CCCNC(=N)N)NC(=O)[C@H](Cc1ccccc1)NC(=O)[C@H](Cc1ccccc1)NC(=O)[C@H](CCCNC(=N)N)NC(=O)[C@H](CCCNC(=N)N)NC(=O)[C@H](Cc1ccccc1)NC(=O)[C@@H](N)Cc1ccccc1)C(N)=O", "note": "[FFRRFFRRFFRRFFRR]", "values": [{"measurement": "MIC", "setting": "[10]", "result": "> 20.5", "unit": "µM"}, {"measurement": "MIC", "setting": "[4]", "result": 8.18, "unit": "µM"}]}
{"smiles": "CC[C@H](C)[C@H](NC(=O)[C@H](Cc1c[nH]c2ccccc12)NC(=O)[C@H](CCCN=C(N)N)NC(=O)[C@H](CCCN=C(N)N)NC(=O)[C@H](Cc1c[nH]c2ccccc12)NC(=O)[C@@H](N)CCCCN)C(=O)N[C@@H](CCCN=C(N)N)C(=O)N[C@@H](Cc1c[nH]c2ccccc12)C(N)=O", "note": "[KWRRWIRW]", "values": [{"measurement": "MIC", "setting": "[5]", "result": 12.5, "unit": "µM"}]}
